Assay results: the kinase profiling compilation of Christmann-Franck et al. (2016)
One block for each compound: values may come before it.

Assays:
Experiment in all cases: Caliper, Mobility shift assay off-chip
ABL1 (human) = ABL1 (human) (UniProt P00519)
BMX (human) = BMX (human) (UniProt P51813)
CHEK1 (human) = CHEK1 (human) (UniProt O14757)
CSNK1A1 (human) = CSNK1A1 (human) (UniProt P48729)
CSNK1G2 (human) = CSNK1G2 (human) (UniProt P78368)
DCLK1 (human) = DCLK1 (human) (UniProt O15075)
DYRK1A (human) = DYRK1A (human) (UniProt Q13627)
EGFR (human) = EGFR (human) (UniProt P00533)
FGFR1 (human) = FGFR1 (human) (UniProt P11362)
[1] = test system: FGFR2 (human), P21802 [N549H]
GSK3B (human) = GSK3B (human) (UniProt P49841)
IGF1R (human) = IGF1R (human) (UniProt P08069)
IKBKB (human) = IKBKB (human) (UniProt O14920)
INSR (human) = INSR (human) (UniProt P06213)
MAP4K4 (human) = MAP4K4 (human) (UniProt O95819)
MAPK12 (human) = MAPK12 (human) (UniProt P53778)
MAPKAPK5 (human) = MAPKAPK5 (human) (UniProt Q8IW41)
MELK (human) = MELK (human) (UniProt Q14680)
PDGFRA (human) = PDGFRA (human) (UniProt P16234)
PHKG2 (human) = PHKG2 (human) (UniProt P15735)
PRKACA (human) = PRKACA (human) (UniProt P17612)
PRKCD (human) = PRKCD (human) (UniProt Q05655)
PRKCG (human) = PRKCG (human) (UniProt P05129)
PRKCH (human) = PRKCH (human) (UniProt P24723)
PRKCQ (human) = PRKCQ (human) (UniProt Q04759)
PTK2B (human) = PTK2B (human) (UniProt Q14289)
RAF1 (human) = RAF1 (human) (UniProt P04049)
[2] = test system: RET (human), P07949 [Y791F]
ROCK2 (human) = ROCK2 (human) (UniProt O75116)
ROS1 (human) = ROS1 (human) (UniProt P08922)
SGK2 (human) = SGK2 (human) (UniProt Q9HBY8)
SGK3 (human) = SGK3 (human) (UniProt Q96BR1)
SRC (human) = SRC (human) (UniProt P12931)

Sequence of GSK3B (human) (P49841 whole entry, looked up): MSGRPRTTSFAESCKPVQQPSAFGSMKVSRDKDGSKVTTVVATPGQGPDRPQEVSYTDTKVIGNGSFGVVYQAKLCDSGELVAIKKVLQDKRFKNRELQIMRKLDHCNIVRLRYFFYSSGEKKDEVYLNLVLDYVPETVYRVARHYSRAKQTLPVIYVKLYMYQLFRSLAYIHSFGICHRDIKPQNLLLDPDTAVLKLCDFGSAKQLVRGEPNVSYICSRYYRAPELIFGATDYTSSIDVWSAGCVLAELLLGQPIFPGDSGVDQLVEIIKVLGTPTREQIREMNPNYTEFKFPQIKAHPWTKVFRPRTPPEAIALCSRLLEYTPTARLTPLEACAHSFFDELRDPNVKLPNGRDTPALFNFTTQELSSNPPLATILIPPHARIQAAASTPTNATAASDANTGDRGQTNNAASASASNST
Sequence of IKBKB (human) (O14920 whole entry, looked up): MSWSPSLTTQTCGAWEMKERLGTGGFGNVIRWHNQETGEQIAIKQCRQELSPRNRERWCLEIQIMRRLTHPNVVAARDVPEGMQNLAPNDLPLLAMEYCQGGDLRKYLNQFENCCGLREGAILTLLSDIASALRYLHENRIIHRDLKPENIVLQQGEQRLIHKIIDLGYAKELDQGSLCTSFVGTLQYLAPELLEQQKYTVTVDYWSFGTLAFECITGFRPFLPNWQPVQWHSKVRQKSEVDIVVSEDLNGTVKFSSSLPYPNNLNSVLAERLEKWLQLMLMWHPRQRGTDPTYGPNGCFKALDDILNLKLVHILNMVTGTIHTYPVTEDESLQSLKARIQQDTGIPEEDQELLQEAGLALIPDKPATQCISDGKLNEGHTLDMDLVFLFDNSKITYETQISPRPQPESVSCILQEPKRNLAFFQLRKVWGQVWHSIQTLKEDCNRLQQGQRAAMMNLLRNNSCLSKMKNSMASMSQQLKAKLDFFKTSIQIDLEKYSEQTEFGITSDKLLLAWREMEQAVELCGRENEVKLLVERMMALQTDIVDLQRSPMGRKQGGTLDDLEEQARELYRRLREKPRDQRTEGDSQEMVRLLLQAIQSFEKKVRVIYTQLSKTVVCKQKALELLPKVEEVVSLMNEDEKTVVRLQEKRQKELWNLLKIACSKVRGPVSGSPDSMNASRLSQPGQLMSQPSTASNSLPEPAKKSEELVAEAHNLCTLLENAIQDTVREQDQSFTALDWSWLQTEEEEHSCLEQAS
Sequence of PRKCH (human) (P24723 whole entry, looked up): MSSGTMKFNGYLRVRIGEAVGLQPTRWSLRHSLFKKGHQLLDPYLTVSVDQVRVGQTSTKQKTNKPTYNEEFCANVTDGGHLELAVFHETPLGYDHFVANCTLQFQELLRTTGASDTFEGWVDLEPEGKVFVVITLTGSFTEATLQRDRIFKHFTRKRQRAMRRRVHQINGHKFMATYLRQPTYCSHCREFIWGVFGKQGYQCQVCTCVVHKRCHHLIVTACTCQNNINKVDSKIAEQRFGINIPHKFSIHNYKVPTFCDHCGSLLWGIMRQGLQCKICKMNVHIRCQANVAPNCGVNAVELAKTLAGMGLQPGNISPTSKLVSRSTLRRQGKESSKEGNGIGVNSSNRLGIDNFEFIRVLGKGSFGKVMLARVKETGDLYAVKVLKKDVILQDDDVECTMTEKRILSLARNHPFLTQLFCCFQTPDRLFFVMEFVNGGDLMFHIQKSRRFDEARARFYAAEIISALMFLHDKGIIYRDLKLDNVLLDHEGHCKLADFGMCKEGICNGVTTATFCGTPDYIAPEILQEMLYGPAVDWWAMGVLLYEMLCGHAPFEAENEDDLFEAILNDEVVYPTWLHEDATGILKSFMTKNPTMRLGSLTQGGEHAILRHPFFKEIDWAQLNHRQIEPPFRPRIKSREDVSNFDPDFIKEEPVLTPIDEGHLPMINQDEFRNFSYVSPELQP
Sequence of EGFR (human) (P00533 whole entry, looked up): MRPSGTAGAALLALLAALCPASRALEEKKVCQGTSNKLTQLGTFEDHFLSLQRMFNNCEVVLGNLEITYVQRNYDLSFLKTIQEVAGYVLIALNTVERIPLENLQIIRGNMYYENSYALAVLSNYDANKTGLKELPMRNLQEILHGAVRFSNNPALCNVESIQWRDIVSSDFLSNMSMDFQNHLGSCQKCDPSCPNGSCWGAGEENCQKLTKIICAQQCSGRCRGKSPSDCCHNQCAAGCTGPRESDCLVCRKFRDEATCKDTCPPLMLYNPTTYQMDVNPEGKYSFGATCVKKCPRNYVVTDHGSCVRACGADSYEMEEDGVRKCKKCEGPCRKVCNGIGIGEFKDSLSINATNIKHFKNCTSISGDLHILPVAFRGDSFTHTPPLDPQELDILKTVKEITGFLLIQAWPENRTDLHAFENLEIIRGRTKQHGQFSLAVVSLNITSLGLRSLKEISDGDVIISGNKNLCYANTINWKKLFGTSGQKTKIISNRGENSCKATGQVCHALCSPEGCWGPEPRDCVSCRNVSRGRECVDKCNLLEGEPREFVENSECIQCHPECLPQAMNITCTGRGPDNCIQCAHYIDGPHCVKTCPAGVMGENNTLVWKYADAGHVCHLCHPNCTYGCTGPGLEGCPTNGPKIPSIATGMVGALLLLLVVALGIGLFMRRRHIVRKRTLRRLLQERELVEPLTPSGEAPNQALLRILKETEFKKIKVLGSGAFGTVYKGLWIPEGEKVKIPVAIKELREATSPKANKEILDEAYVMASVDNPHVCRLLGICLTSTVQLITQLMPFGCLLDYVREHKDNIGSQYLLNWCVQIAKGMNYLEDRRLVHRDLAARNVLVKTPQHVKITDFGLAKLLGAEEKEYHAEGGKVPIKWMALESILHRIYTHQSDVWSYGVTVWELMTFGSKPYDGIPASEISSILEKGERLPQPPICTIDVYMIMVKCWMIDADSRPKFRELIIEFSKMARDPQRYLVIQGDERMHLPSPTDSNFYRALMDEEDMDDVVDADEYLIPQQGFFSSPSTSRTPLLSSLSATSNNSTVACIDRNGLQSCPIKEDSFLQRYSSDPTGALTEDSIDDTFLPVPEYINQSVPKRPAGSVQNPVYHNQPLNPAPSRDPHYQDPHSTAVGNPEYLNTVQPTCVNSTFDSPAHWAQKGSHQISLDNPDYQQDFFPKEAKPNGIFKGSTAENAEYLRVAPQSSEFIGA
Sequence of INSR (human) (P06213 whole entry, looked up): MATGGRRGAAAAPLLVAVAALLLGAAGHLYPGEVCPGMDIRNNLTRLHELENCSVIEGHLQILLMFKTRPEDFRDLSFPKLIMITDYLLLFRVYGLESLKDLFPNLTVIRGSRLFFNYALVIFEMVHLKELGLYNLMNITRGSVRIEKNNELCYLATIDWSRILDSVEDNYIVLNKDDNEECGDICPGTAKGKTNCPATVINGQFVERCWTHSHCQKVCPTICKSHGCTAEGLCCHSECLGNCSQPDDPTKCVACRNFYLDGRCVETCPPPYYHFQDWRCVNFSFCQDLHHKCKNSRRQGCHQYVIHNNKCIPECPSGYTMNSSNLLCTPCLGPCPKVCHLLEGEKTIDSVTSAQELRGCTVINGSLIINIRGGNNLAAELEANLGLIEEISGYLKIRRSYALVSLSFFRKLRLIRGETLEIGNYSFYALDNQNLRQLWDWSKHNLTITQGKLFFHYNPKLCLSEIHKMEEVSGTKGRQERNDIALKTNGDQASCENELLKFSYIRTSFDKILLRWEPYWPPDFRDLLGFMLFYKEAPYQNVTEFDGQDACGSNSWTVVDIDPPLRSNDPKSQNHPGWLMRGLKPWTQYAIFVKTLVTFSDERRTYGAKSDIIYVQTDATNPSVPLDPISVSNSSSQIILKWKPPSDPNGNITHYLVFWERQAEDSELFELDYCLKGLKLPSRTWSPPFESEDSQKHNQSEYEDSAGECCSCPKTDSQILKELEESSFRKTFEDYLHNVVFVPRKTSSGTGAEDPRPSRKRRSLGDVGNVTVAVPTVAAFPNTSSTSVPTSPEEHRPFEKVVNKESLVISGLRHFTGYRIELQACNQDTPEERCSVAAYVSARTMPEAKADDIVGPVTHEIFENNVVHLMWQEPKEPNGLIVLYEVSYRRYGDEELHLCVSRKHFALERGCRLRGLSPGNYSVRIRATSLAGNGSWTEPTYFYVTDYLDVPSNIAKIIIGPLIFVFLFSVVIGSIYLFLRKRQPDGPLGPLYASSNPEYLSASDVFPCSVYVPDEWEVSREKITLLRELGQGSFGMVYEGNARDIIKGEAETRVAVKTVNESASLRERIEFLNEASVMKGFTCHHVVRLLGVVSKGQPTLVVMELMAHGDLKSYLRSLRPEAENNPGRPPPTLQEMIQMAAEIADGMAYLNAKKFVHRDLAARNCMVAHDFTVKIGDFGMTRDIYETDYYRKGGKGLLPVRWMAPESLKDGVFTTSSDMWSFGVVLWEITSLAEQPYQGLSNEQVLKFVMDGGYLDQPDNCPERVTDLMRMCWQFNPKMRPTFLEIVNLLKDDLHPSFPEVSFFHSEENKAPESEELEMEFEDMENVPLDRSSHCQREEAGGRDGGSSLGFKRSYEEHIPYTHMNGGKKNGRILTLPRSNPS
Sequence of CHEK1 (human) (O14757 whole entry, looked up): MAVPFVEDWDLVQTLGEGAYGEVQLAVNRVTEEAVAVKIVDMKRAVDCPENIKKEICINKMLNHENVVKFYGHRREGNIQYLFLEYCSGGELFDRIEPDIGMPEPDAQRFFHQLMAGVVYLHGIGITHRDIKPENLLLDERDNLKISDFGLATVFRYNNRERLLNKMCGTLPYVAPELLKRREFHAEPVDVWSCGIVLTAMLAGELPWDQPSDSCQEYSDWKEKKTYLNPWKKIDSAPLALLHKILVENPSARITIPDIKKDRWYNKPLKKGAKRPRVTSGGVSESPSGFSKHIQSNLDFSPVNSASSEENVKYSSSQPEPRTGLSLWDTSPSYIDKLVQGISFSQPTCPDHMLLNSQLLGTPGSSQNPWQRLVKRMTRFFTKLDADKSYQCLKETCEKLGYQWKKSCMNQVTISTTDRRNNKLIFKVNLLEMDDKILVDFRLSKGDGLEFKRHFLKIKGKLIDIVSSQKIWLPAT

inhibition (ABL1 (human); compound 0.1 µM): 8.2%
inhibition (ABL1 (human); compound 1.0 µM): 36.3%
inhibition (BMX (human); compound 0.1 µM): 1.8%
inhibition (BMX (human); compound 1.0 µM): 8%
inhibition (CHEK1 (human); compound 0.1 µM): 3.6%
inhibition (CHEK1 (human); compound 1.0 µM): 2.6%
inhibition (CSNK1A1 (human); compound 0.1 µM): -7.8%
inhibition (CSNK1A1 (human); compound 1.0 µM): 7.2%
inhibition (CSNK1G2 (human); compound 0.1 µM): -9%
inhibition (CSNK1G2 (human); compound 1.0 µM): 1.2%
inhibition (DCLK1 (human); compound 0.1 µM): 3.5%
inhibition (DCLK1 (human); compound 1.0 µM): 5.9%
inhibition (DYRK1A (human); compound 0.1 µM): 7.9%
inhibition (DYRK1A (human); compound 1.0 µM): 40.1%
inhibition (EGFR (human); compound 0.1 µM): -4.8%
inhibition (EGFR (human); compound 1.0 µM): 7%
inhibition (FGFR1 (human); compound 0.1 µM): -11.4%
inhibition (FGFR1 (human); compound 1.0 µM): 26.7%
inhibition ([1]; compound 0.1 µM): 16%
inhibition ([1]; compound 1.0 µM): 57.6%
inhibition (GSK3B (human); compound 0.1 µM): -6.8%
inhibition (GSK3B (human); compound 1.0 µM): 4.8%
inhibition (IGF1R (human); compound 0.1 µM): -12.2%
inhibition (IGF1R (human); compound 1.0 µM): -0.8%
inhibition (IKBKB (human); compound 0.1 µM): 10%
inhibition (IKBKB (human); compound 1.0 µM): 18.6%
inhibition (INSR (human); compound 0.1 µM): 3.4%
inhibition (INSR (human); compound 1.0 µM): -0.3%
inhibition (MAP4K4 (human); compound 0.1 µM): 18.6%
inhibition (MAP4K4 (human); compound 1.0 µM): 56.3%
inhibition (MAPK12 (human); compound 0.1 µM): -6%
inhibition (MAPK12 (human); compound 1.0 µM): 0.4%
inhibition (MAPKAPK5 (human); compound 0.1 µM): 10.5%
inhibition (MAPKAPK5 (human); compound 1.0 µM): 3%
inhibition (MELK (human); compound 0.1 µM): 11.5%
inhibition (MELK (human); compound 1.0 µM): 45.5%
inhibition (PDGFRA (human); compound 0.1 µM): -13.5%
inhibition (PDGFRA (human); compound 1.0 µM): 31.2%
inhibition (PHKG2 (human); compound 0.1 µM): 17.8%
inhibition (PHKG2 (human); compound 1.0 µM): 12.7%
inhibition (PRKACA (human); compound 0.1 µM): -11.5%
inhibition (PRKACA (human); compound 1.0 µM): -3.3%
inhibition (PRKCD (human); compound 0.1 µM): -0.8%
inhibition (PRKCD (human); compound 1.0 µM): 2.2%
inhibition (PRKCG (human); compound 0.1 µM): -8.6%
inhibition (PRKCG (human); compound 1.0 µM): -6.9%
inhibition (PRKCH (human); compound 0.1 µM): 10%
inhibition (PRKCH (human); compound 1.0 µM): 3.2%
inhibition (PRKCQ (human); compound 0.1 µM): -2.9%
inhibition (PRKCQ (human); compound 1.0 µM): -2%
inhibition (PTK2B (human); compound 0.1 µM): -3.9%
inhibition (PTK2B (human); compound 1.0 µM): 3.2%
inhibition (RAF1 (human); compound 0.1 µM): -6.5%
inhibition (RAF1 (human); compound 1.0 µM): -0.8%
inhibition ([2]; compound 0.1 µM): 10.2%
inhibition ([2]; compound 1.0 µM): 43.4%
inhibition (ROCK2 (human); compound 0.1 µM): 21.3%
inhibition (ROCK2 (human); compound 1.0 µM): 20.8%
inhibition (ROS1 (human); compound 0.1 µM): 1%
inhibition (ROS1 (human); compound 1.0 µM): 12%
inhibition (SGK2 (human); compound 0.1 µM): 1.8%
inhibition (SGK2 (human); compound 1.0 µM): 3.7%
inhibition (SGK3 (human); compound 0.1 µM): -5.3%
inhibition (SGK3 (human); compound 1.0 µM): 1.1%
inhibition (SRC (human); compound 0.1 µM): -3.2%
inhibition (SRC (human); compound 1.0 µM): 14.2%
Compound: CN(c1ccc2ccc3ncc(-c4cnn(C)c4)cc3c(=O)c2c1)S(=O)(=O)NCc1ccccn1

inhibition (ABL1 (human); compound 0.01 µM): 3.8%
inhibition (ABL1 (human); compound 0.1 µM): 3.4%
inhibition (BMX (human); compound 0.01 µM): -1%
inhibition (BMX (human); compound 0.1 µM): -7.1%
inhibition (CHEK1 (human); compound 0.01 µM): 4.3%
inhibition (CHEK1 (human); compound 0.1 µM): 1.3%
inhibition (CSNK1A1 (human); compound 0.01 µM): -2.8%
inhibition (CSNK1A1 (human); compound 0.1 µM): 10.2%
inhibition (CSNK1G2 (human); compound 0.01 µM): 4.3%
inhibition (CSNK1G2 (human); compound 0.1 µM): 1.3%
inhibition (DCLK1 (human); compound 0.01 µM): 5.9%
inhibition (DCLK1 (human); compound 0.1 µM): 12%
inhibition (DYRK1A (human); compound 0.01 µM): -1%
inhibition (DYRK1A (human); compound 0.1 µM): 6.4%
inhibition (EGFR (human); compound 0.01 µM): -7.2%
inhibition (EGFR (human); compound 0.1 µM): -1%
inhibition (FGFR1 (human); compound 0.01 µM): 6.8%
inhibition (FGFR1 (human); compound 0.1 µM): 2.8%
inhibition ([1]; compound 0.01 µM): -3.9%
inhibition ([1]; compound 0.1 µM): 12.4%
inhibition (GSK3B (human); compound 0.01 µM): 4.9%
inhibition (GSK3B (human); compound 0.1 µM): 1.3%
inhibition (IGF1R (human); compound 0.01 µM): 3.9%
inhibition (IGF1R (human); compound 0.1 µM): -7.9%
inhibition (IKBKB (human); compound 0.01 µM): 3.8%
inhibition (IKBKB (human); compound 0.1 µM): -0.4%
inhibition (INSR (human); compound 0.01 µM): 3.1%
inhibition (INSR (human); compound 0.1 µM): 3.1%
inhibition (MAP4K4 (human); compound 0.01 µM): -2.1%
inhibition (MAP4K4 (human); compound 0.1 µM): 9.2%
inhibition (MAPK12 (human); compound 0.01 µM): 2%
inhibition (MAPK12 (human); compound 0.1 µM): 5.1%
inhibition (MAPKAPK5 (human); compound 0.01 µM): -2.5%
inhibition (MAPKAPK5 (human); compound 0.1 µM): 6.9%
inhibition (MELK (human); compound 0.01 µM): 1.7%
inhibition (MELK (human); compound 0.1 µM): -0.5%
inhibition (PDGFRA (human); compound 0.01 µM): 0.2%
inhibition (PDGFRA (human); compound 0.1 µM): 9%
inhibition (PHKG2 (human); compound 0.01 µM): 3.4%
inhibition (PHKG2 (human); compound 0.1 µM): 13.3%
inhibition (PRKACA (human); compound 0.01 µM): 2.8%
inhibition (PRKACA (human); compound 0.1 µM): -0.1%
inhibition (PRKCD (human); compound 0.01 µM): -8.7%
inhibition (PRKCD (human); compound 0.1 µM): 8.3%
inhibition (PRKCG (human); compound 0.01 µM): 2.4%
inhibition (PRKCG (human); compound 0.1 µM): 2.1%
inhibition (PRKCH (human); compound 0.01 µM): -2.5%
inhibition (PRKCH (human); compound 0.1 µM): -14.9%
inhibition (PRKCQ (human); compound 0.01 µM): -6.4%
inhibition (PRKCQ (human); compound 0.1 µM): -1.3%
inhibition (PTK2B (human); compound 0.01 µM): -1%
inhibition (PTK2B (human); compound 0.1 µM): 6.8%
inhibition (RAF1 (human); compound 0.01 µM): 2.2%
inhibition (RAF1 (human); compound 0.1 µM): 4.5%
inhibition ([2]; compound 0.01 µM): 14.9%
inhibition ([2]; compound 0.1 µM): 1%
inhibition (ROCK2 (human); compound 0.01 µM): 6.2%
inhibition (ROCK2 (human); compound 0.1 µM): 21.2%
inhibition (ROS1 (human); compound 0.01 µM): 21.2%
inhibition (ROS1 (human); compound 0.1 µM): 6.6%
inhibition (SGK2 (human); compound 0.01 µM): -1.3%
inhibition (SGK2 (human); compound 0.1 µM): -0.1%
inhibition (SGK3 (human); compound 0.01 µM): 4.9%
inhibition (SGK3 (human); compound 0.1 µM): 17.7%
inhibition (SRC (human); compound 0.01 µM): 2.2%
inhibition (SRC (human); compound 0.1 µM): -1.4%
Compound: Cn1cc(-c2cnc3ccc4ccc(CS(=O)(=O)NC5CCCCC5)cc4c(=O)c3c2)cn1
